Measured values as given in paper PMC5218480 (PLoS ONE, 2017).

System: MV-4-11 cells
Test: Gene expression microarray analysis (Affymetrix PrimeView) and GSEA
Format: cell-based, human
Set-up: RFU PODN (11730768_x_at) / Fold change /veh PODN (11730768_x_at) / RFU LINC00158 (11744669_a_at) / Fold change /veh LINC00158 (11744669_a_at) / RFU DUSP10 (11751237_a_at) / Fold change /veh DUSP10 (11751237_a_at) / RFU ID3 (11757404_x_at) / Fold change /veh ID3 (11757404_x_at) / RFU PLEKHG5 (11737974_s_at) / Fold change /veh PLEKHG5 (11737974_s_at) / RFU LRRC4B (11730491_at) / Fold change /veh LRRC4B (11730491_at) / RFU GIMAP4 (11747438_a_at) / Fold change /veh GIMAP4 (11747438_a_at) / RFU KRT8 (11758183_x_at) / Fold change /veh KRT8 (11758183_x_at) / RFU CNN1 (11734310_a_at) / Fold change /veh CNN1 (11734310_a_at) / RFU VPS37D (11726825_at) / Fold change /veh VPS37D (11726825_at) / RFU C10orf10 (11716522_x_at) / Fold change /veh C10orf10 (11716522_x_at) / RFU KIR2DL2 /// KIR2DL4 /// KIR2DL5A /// KIR2DL5B /// KIR2DS1 /// KIR2DS2 /// KIR2DS3 /// KIR2DS4 /// KIR3DL3 /// KIR3DL3 /// KIR3DS1 (11738374_at) / Fold change /veh KIR2DL2 /// KIR2DL4 /// KIR2DL5A /// KIR2DL5B /// KIR2DS1 /// KIR2DS2 /// KIR2DS3 /// KIR2DS4 /// KIR3DL3 /// KIR3DL3 /// KIR3DS1 (11738374_at) / RFU C1QL1 (11718748_at) / Fold change /veh C1QL1 (11718748_at) / RFU TMPRSS4 (11747572_a_at) / Fold change /veh TMPRSS4 (11747572_a_at) / RFU HAMP (11756126_x_at) / Fold change /veh HAMP (11756126_x_at) / RFU RNFT2 (11725882_a_at) / Fold change /veh RNFT2 (11725882_a_at) / RFU NR4A2 (11747474_a_at) / Fold change /veh NR4A2 (11747474_a_at) / RFU ABCC12 (11746883_a_at) / Fold change /veh ABCC12 (11746883_a_at) / RFU TMEM136 (11760407_x_at) / Fold change /veh TMEM136 (11760407_x_at) / RFU CLDN22 /// WWC2 (11732394_at) / Fold change /veh CLDN22 /// WWC2 (11732394_at) / RFU HLA-DPB1 (11760878_x_at) / Fold change /veh HLA-DPB1 (11760878_x_at) / RFU SPINT1 (11716480_a_at) / Fold change /veh SPINT1 (11716480_a_at) / RFU GAP43 (11754022_s_at) / Fold change /veh GAP43 (11754022_s_at) / RFU A4GNT (11735810_at) / Fold change /veh A4GNT (11735810_at) / RFU PRB3 (11715151_x_at) / Fold change /veh PRB3 (11715151_x_at) / RFU TUBB4B (11761932_at) / Fold change /veh TUBB4B (11761932_at) / RFU CAPN14 (11732068_a_at) / Fold change /veh CAPN14 (11732068_a_at) / RFU TMCC2 (11721928_a_at) / Fold change /veh TMCC2 (11721928_a_at) / RFU IRGQ (11745062_a_at) / Fold change /veh IRGQ (11745062_a_at) / RFU FAM174B (11720279_a_at) / Fold change /veh FAM174B (11720279_a_at) / RFU TMPRSS4 (11748680_a_at) / Fold change /veh TMPRSS4 (11748680_a_at) / RFU FAM212B (11763350_a_at) / Fold change /veh FAM212B (11763350_a_at) / RFU PLEKHG5 (11743358_a_at) / Fold change /veh PLEKHG5 (11743358_a_at) / RFU ZSCAN30 (11745921_a_at) / Fold change /veh ZSCAN30 (11745921_a_at) / RFU CMKLR1 (11741424_a_at) / Fold change /veh CMKLR1 (11741424_a_at) / RFU LOC101060620 /// MAPK8IP1 (11723275_at) / Fold change /veh LOC101060620 /// MAPK8IP1 (11723275_at) / RFU SPTSSB (11747773_x_at) / Fold change /veh SPTSSB (11747773_x_at) / RFU PRSS12 (11739890_at) / Fold change /veh PRSS12 (11739890_at) / RFU BIN1 (11741810_x_at) / Fold change /veh BIN1 (11741810_x_at) / RFU WNT11 (11732464_a_at) / Fold change /veh WNT11 (11732464_a_at) / RFU C10orf10 (11716521_a_at) / Fold change /veh C10orf10 (11716521_a_at) / RFU C5orf56 (11738089_at) / Fold change /veh C5orf56 (11738089_at) / RFU CYB561 (11721691_x_at) / Fold change /veh CYB561 (11721691_x_at) / RFU ANKRD19P (11752326_a_at) / Fold change /veh ANKRD19P (11752326_a_at) / RFU OR2T12 /// OR2T33 /// OR2T8 (11738714_s_at) / Fold change /veh OR2T12 /// OR2T33 /// OR2T8 (11738714_s_at) / RFU VCAN (11748164_a_at) / Fold change /veh VCAN (11748164_a_at) / RFU JSRP1 (11732532_at) / Fold change /veh JSRP1 (11732532_at) / RFU KRTAP10-11 (11738290_x_at) / Fold change /veh KRTAP10-11 (11738290_x_at) / RFU MYO3A (11730013_a_at) / Fold change /veh MYO3A (11730013_a_at) / RFU EBF3 (11725865_a_at) / Fold change /veh EBF3 (11725865_a_at) / RFU CAMK2N1 (11719241_x_at) / Fold change /veh CAMK2N1 (11719241_x_at) / RFU C5orf56 (11738088_a_at) / Fold change /veh C5orf56 (11738088_a_at) / RFU OLFML3 (11715873_a_at) / Fold change /veh OLFML3 (11715873_a_at) / RFU LOC100653217 /// NTM (11731650_a_at) / Fold change /veh LOC100653217 /// NTM (11731650_a_at) / RFU MAPK11 (11762145_a_at) / Fold change /veh MAPK11 (11762145_a_at) / RFU FIZ1 (11724087_x_at) / Fold change /veh FIZ1 (11724087_x_at) / RFU OASL (11726364_x_at) / Fold change /veh OASL (11726364_x_at) / RFU SOX15 (11748057_x_at) / Fold change /veh SOX15 (11748057_x_at) / RFU CD79A (11719716_a_at) / Fold change /veh CD79A (11719716_a_at) / RFU HIST1H1D (11736915_at) / Fold change /veh HIST1H1D (11736915_at) / RFU CASKIN2 (11723855_a_at) / Fold change /veh CASKIN2 (11723855_a_at) / RFU LOC730098 (11760151_x_at) / Fold change /veh LOC730098 (11760151_x_at) / RFU OR4N2 (11742367_at) / Fold change /veh OR4N2 (11742367_at) / RFU PRRT2 (11749266_a_at) / Fold change /veh PRRT2 (11749266_a_at) / RFU SNX32 (11753110_a_at) / Fold change /veh SNX32 (11753110_a_at) / RFU CDHR5 (11726645_a_at) / Fold change /veh CDHR5 (11726645_a_at) / RFU RCAN1 (11760418_a_at) / Fold change /veh RCAN1 (11760418_a_at) / RFU FAM167A (11723789_a_at) / Fold change /veh FAM167A (11723789_a_at) / RFU FAM26E (11764081_at) / Fold change /veh FAM26E (11764081_at) / RFU ISYNA1 (11749810_s_at) / Fold change /veh ISYNA1 (11749810_s_at) / RFU ACY1 (11761880_at) / Fold change /veh ACY1 (11761880_at) / RFU 11764098_at / Fold change /veh 11764098_at / RFU SAMD14 (11745864_x_at) / Fold change /veh SAMD14 (11745864_x_at) / RFU NPB (11741838_a_at) / Fold change /veh NPB (11741838_a_at) / RFU TMPRSS6 (11731388_a_at) / Fold change /veh TMPRSS6 (11731388_a_at) / RFU KRTAP10-2 (11738614_at) / Fold change /veh KRTAP10-2 (11738614_at) / RFU ARHGAP8 /// PRR5-ARHGAP8 (11727945_x_at) / Fold change /veh ARHGAP8 /// PRR5-ARHGAP8 (11727945_x_at) / RFU KRTAP5-7 /// NADSYN1 (11734609_at) / Fold change /veh KRTAP5-7 /// NADSYN1 (11734609_at) / RFU RASL12 (11751679_a_at) / Fold change /veh RASL12 (11751679_a_at) / RFU CDKN2B (11736163_a_at) / Fold change /veh CDKN2B (11736163_a_at) / RFU PRF1 (11729649_at) / Fold change /veh PRF1 (11729649_at) / RFU, ZNF638 /// ZNF638-IT1 / Fold change vs veh, ZNF638 /// ZNF638-IT1 / RFU, PANK3 / Fold change vs veh, PANK3 / RFU, SH3YL1 / Fold change vs veh, SH3YL1 / RFU, ZEB2 / Fold change vs veh, ZEB2 / RFU, NRIP1 / Fold change vs veh, NRIP1 / RFU, PTTG1IP / Fold change vs veh, PTTG1IP / RFU, CAPN2 / Fold change vs veh, CAPN2 / RFU, MED14 / Fold change vs veh, MED14 / RFU, SNORA58 / Fold change vs veh, SNORA58 / RFU, C1orf63 / Fold change vs veh, C1orf63 / RFU, LRRFIP1 / Fold change vs veh, LRRFIP1 / RFU, NDUFAF7 / Fold change vs veh, NDUFAF7 / RFU, SLC12A2 / Fold change vs veh, SLC12A2 / RFU, IBTK / Fold change vs veh, IBTK / RFU, ESF1 / Fold change vs veh, ESF1 / Fold change vs veh, TMEM50B / RFU, TAOK1 / Fold change vs veh, TAOK1 / RFU, ACBD3 / Fold change vs veh, ACBD3 / RFU, TMA16 / Fold change vs veh, TMA16 / RFU, RWDD3 / Fold change vs veh, RWDD3 / RFU, BCAT1 / Fold change vs veh, BCAT1 / RFU, EDEM3 / Fold change vs veh, EDEM3 / RFU, TMEM33 / Fold change vs veh, TMEM33 / RFU, WDR75 / Fold change vs veh, WDR75 / RFU, AHCTF1 / Fold change vs veh, AHCTF1 / RFU, TFRC / Fold change vs veh, TFRC / RFU, ZDHHC17 / Fold change vs veh, ZDHHC17 / RFU, NOM1 / Fold change vs veh, NOM1 / RFU, ARL8B / Fold change vs veh, ARL8B / RFU, ZBTB11 / Fold change vs veh, ZBTB11 / RFU, TAMM41 / Fold change vs veh, TAMM41 / RFU, KIAA1704 /// LOC100996395 / Fold change vs veh, KIAA1704 /// LOC100996395 / RFU, ING1 / Fold change vs veh, ING1 / RFU, TRMT61B / Fold change vs veh, TRMT61B / RFU, FUBP3 / Fold change vs veh, FUBP3 / RFU, TP53 / Fold change vs veh, TP53 / RFU, TNKS2 / Fold change vs veh, TNKS2 / RFU, ZFP14 / Fold change vs veh, ZFP14 / RFU, ACTR2 / Fold change vs veh, ACTR2 / RFU, PPP3R1 / Fold change vs veh, PPP3R1 / RFU, PIK3R1 / Fold change vs veh, PIK3R1 / RFU, HNRNPA1 / Fold change vs veh, HNRNPA1 / RFU, RNF170 / Fold change vs veh, RNF170 / RFU, ZNF28 / Fold change vs veh, ZNF28 / RFU, RNGTT / Fold change vs veh, RNGTT / RFU, OGT / Fold change vs veh, OGT / RFU, BRD1 / Fold change vs veh, BRD1 / RFU, MARS / Fold change vs veh, MARS / RFU, ZNF655 / Fold change vs veh, ZNF655 / RFU, FAHD1 / Fold change vs veh, FAHD1 / RFU, BDP1 / Fold change vs veh, BDP1 / RFU, LRRCC1 / Fold change vs veh, LRRCC1 / RFU, ARID1A / Fold change vs veh, ARID1A / RFU, ZNF146 / Fold change vs veh, ZNF146 / RFU, ZNF330 / Fold change vs veh, ZNF330 / RFU, GPN3 / Fold change vs veh, GPN3 / RFU, C9orf123 / Fold change vs veh, C9orf123 / RFU, N4BP2L2 / Fold change vs veh, N4BP2L2 / RFU, ARFIP1 / Fold change vs veh, ARFIP1 / RFU, FAM179B / Fold change vs veh, FAM179B / RFU, BCL10 / Fold change vs veh, BCL10 / RFU, UHRF1BP1L / Fold change vs veh, UHRF1BP1L / RFU, BET1 / Fold change vs veh, BET1 / RFU, CNOT2 / Fold change vs veh, CNOT2 / RFU, ZNF268 / Fold change vs veh, ZNF268 / Fold change vs veh, ZNF507 / RFU, DGCR2 / Fold change vs veh, DGCR2 / RFU, WDSUB1 / Fold change vs veh, WDSUB1 / Fold change vs veh, HSP90B1 /// MIR3652 / RFU, ADSS / Fold change vs veh, ADSS / RFU, GK / Fold change vs veh, GK / RFU, ZNF148 / Fold change vs veh, ZNF148 / RFU, TAF9 / Fold change vs veh, TAF9 / RFU, SLC1A5 / Fold change vs veh, SLC1A5 / RFU, SLMO2 / Fold change vs veh, SLMO2 / RFU, ABCC4 / Fold change vs veh, ABCC4 / RFU, LOC101060439 /// RAP1B / Fold change vs veh, LOC101060439 /// RAP1B / RFU, RFX7 / Fold change vs veh, RFX7 / RFU, GTPBP10 / Fold change vs veh, GTPBP10 / RFU, CNEP1R1 / Fold change vs veh, CNEP1R1 / RFU, BIVM-ERCC5 /// ERCC5 / Fold change vs veh, BIVM-ERCC5 /// ERCC5 / RFU, ILF3 / Fold change vs veh, ILF3 / RFU 11762660_at / Fold change /veh 11762660_at / RFU VCAN (11757783_s_at) / Fold change /veh VCAN (11757783_s_at) / RFU DDX43 (11728927_at) / Fold change /veh DDX43 (11728927_at) / RFU KRT8 (11758188_x_at) / Fold change /veh KRT8 (11758188_x_at) / RFU NKD1 (11759106_at) / Fold change /veh NKD1 (11759106_at) / RFU SRD5A1 (11742802_a_at) / Fold change /veh SRD5A1 (11742802_a_at) / RFU TPSAB1 /// TPSB2 (11721975_s_at) / Fold change /veh TPSAB1 /// TPSB2 (11721975_s_at) / RFU GSTM3 (11746129_a_at) / Fold change /veh GSTM3 (11746129_a_at) / RFU IL23R (11737362_x_at) / Fold change /veh IL23R (11737362_x_at) / RFU TMEM51 (11727254_a_at) / Fold change /veh TMEM51 (11727254_a_at) / RFU PIWIL2 (11732686_x_at) / Fold change /veh PIWIL2 (11732686_x_at) / RFU ORM1 (11744905_x_at) / Fold change /veh ORM1 (11744905_x_at) / RFU CCDC152 (11743942_at) / Fold change /veh CCDC152 (11743942_at) / RFU ECM1 (11717891_a_at) / Fold change /veh ECM1 (11717891_a_at) / RFU IL23R (11748794_a_at) / Fold change /veh IL23R (11748794_a_at) / RFU TNFAIP8L3 (11732012_x_at) / Fold change /veh TNFAIP8L3 (11732012_x_at) / RFU MBOAT4 (11741988_at) / Fold change /veh MBOAT4 (11741988_at) / RFU 11764193_at / Fold change /veh 11764193_at / RFU TMEM53 (11763286_at) / Fold change /veh TMEM53 (11763286_at) / RFU MAGEB2 (11727129_at) / Fold change /veh MAGEB2 (11727129_at) / RFU TMEM200A (11744735_a_at) / Fold change /veh TMEM200A (11744735_a_at) / RFU CCDC152 (11751479_a_at) / Fold change /veh CCDC152 (11751479_a_at) / RFU FAM211A (11726209_a_at) / Fold change /veh FAM211A (11726209_a_at) / RFU RGS16 (11746705_a_at) / Fold change /veh RGS16 (11746705_a_at) / RFU VCAN (11755009_s_at) / Fold change /veh VCAN (11755009_s_at) / RFU RHOB (11743442_s_at) / Fold change /veh RHOB (11743442_s_at) / RFU RGS16 (11720943_a_at) / Fold change /veh RGS16 (11720943_a_at) / RFU RGS16 (11720944_at) / Fold change /veh RGS16 (11720944_at) / RFU, VPS4B / Fold change vs veh, VPS4B / RFU, CREB1 / Fold change vs veh, CREB1 / RFU, DNAJC13 / Fold change vs veh, DNAJC13 / RFU, GNAQ / Fold change vs veh, GNAQ / RFU, CDK5R1 / Fold change vs veh, CDK5R1 / RFU, ZRANB3 / Fold change vs veh, ZRANB3 / RFU, CUL4A / Fold change vs veh, CUL4A / RFU, CCNY / Fold change vs veh, CCNY / RFU, UFL1 / Fold change vs veh, UFL1 / RFU, COG3 / Fold change vs veh, COG3 / RFU, DIAPH2 / Fold change vs veh, DIAPH2 / RFU, SKA2 / Fold change vs veh, SKA2 / RFU, AFF3 / Fold change vs veh, AFF3 / RFU, LMF1 / Fold change vs veh, LMF1 / RFU, IPO11 / Fold change vs veh, IPO11 / RFU, DFFB / Fold change vs veh, DFFB / RFU, FOXP1 / Fold change vs veh, FOXP1 / RFU, CARD8 / Fold change vs veh, CARD8 / RFU, STRN3 / Fold change vs veh, STRN3 / RFU, ADK / Fold change vs veh, ADK / RFU, RASSF2 / Fold change vs veh, RASSF2 / RFU, WIPF1 / Fold change vs veh, WIPF1 / RFU, LARP1B / Fold change vs veh, LARP1B / RFU, RASA1 / Fold change vs veh, RASA1 / RFU, RB1 / Fold change vs veh, RB1 / RFU, PPFIA1 / Fold change vs veh, PPFIA1 / RFU, MAT2A / Fold change vs veh, MAT2A / RFU, CCT5 / Fold change vs veh, CCT5 / RFU, WDR92 / Fold change vs veh, WDR92 / RFU, CUX1 / Fold change vs veh, CUX1 / RFU, TTC7A / Fold change vs veh, TTC7A / RFU, TMEM135 / Fold change vs veh, TMEM135 / RFU, DEPTOR / Fold change vs veh, DEPTOR / RFU, CPM / Fold change vs veh, CPM / RFU, DNAJB6 / Fold change vs veh, DNAJB6 / RFU, CACNA2D3 / Fold change vs veh, CACNA2D3 / RFU, DTX4 / Fold change vs veh, DTX4 / RFU, TFCP2 / Fold change vs veh, TFCP2 / RFU, GMCL1 /// GMCL1P1 / Fold change vs veh, GMCL1 /// GMCL1P1 / RFU, AEBP2 / Fold change vs veh, AEBP2 / RFU, SNHG1 /// SNORD22 /// SNORD25 /// SNORD26 /// SNORD27 /// SNORD28 /// SNORD29 /// SNORD31 / Fold change vs veh, SNHG1 /// SNORD22 /// SNORD25 /// SNORD26 /// SNORD27 /// SNORD28 /// SNORD29 /// SNORD31 / Fold change (Aza/veh), C12orf56 (ProbeSet 11735607_a_at) / Fold change (ACY-1035/veh), C12orf56 (ProbeSet 11735607_a_at) / Fold change (Aza/veh), FGFR1OP (ProbeSet 11751329_s_at) / Fold change (ACY-1035/veh), FGFR1OP (ProbeSet 11751329_s_at) / Fold change (Aza/veh), VPS36 (ProbeSet 11739960_a_at) / Fold change (ACY-1035/veh), VPS36 (ProbeSet 11739960_a_at) / RFU SYPL1 (11715823_x_at) / Fold change /veh SYPL1 (11715823_x_at) / RFU IGFBP7 (11715501_s_at) / Fold change /veh IGFBP7 (11715501_s_at) / RFU REEP3 (11722064_at) / Fold change /veh REEP3 (11722064_at) / RFU IGLL1 (11728026_x_at) / Fold change /veh IGLL1 (11728026_x_at): dose or concentration left out as unconfirmed
Settings: ProbeSet 11720270_a_at; LIST B

Nc1ccc(-c2cccs2)cc1NC(=O)c1ccc2c(c1)cc(C1CC1)n2CCN1CCOCC1 [ACY-1035]
Fold change vs veh, IBTK: 0.91
